Assay results published in patent US9663488B2, “Metalloenzyme inhibitor compounds” (Viamet Pharmaceuticals, Inc., priority 2013, dated 2017).
Counter-ions that a name gives are not always drawn.

What follows are compounds tested against T1, LpxC (Pseudomonas aeruginosa, UniProt P47205) (assay: Inhibition of LpxC Enzyme). Conditions: LpxC enzyme is pseudomonas construct.
T1 sequence (P47205 1-303): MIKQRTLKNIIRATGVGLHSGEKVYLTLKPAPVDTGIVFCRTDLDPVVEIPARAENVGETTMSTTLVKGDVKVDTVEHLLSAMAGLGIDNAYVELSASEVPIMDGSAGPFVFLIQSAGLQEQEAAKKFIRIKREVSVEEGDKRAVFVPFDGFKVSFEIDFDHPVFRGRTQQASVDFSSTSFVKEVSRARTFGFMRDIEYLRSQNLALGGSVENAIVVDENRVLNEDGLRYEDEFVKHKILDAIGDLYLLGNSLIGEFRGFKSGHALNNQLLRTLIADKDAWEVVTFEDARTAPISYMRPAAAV
Assay type: biochemical
Protocol: [The source words this procedure for another target and reports this target under the same test.] A. Inhibition of LpxC Enzyme
Test compounds were dissolved in 100% DMSO @ 10 mM. Then a series of dilutions were done with 100% DMSO, these were the first intermediate dilutions. Individual 100% DMSO dilutions were diluted independently to another intermediate dilution using assay buffer (bringing the DMSO concentration to 5%). Finally, 10 μl of all these 5% intermediate dilutions were used directly in the 50 μl reaction, making the final DMSO testing concentration at 1%. The enzymatic reactions were conducted in duplicate at room temperature for 1 hour in a 50 μL mixture containing MMP-2 assay buffer, 1 μM Mca-PLGLDpaAR, 10 uL MPP-2 enzyme (1.8 ng) and 10 μL of a test compound. All the reactions were conducted using 10 μl MMP-2 assay buffer in place of enzyme, to detect just the background fluorescence from the compound. After enzymatic reactions, fluorescence intensity was measured at an excitation of 328 nm and an emission of 393 nm using a Tecan Infinite M1000™ microplate reader.

IC50 [nM]	SMILES
4	NNC(=O)c1cc(-c2ccc(-c3ccc(-c4cc(C(=O)N5CCC[C@@H]5C(=O)O)on4)cc3)cc2)nc2ccncc12 [Example 31, (R)-1-(3-(4′-(4-(hydrazinecarbonyl)-1,6-naphthyridin-2-yl)-[1,1′-biphenyl]-4-yl)isoxazole-5-carbonyl)pyrrolidine-2-carboxylic acid hydrochloride]
2	NNC(=O)c1cc(-c2ccc(-c3ccc(-c4cc(CO)on4)cc3)cc2)nc2cc(NS(=O)(=O)CC(=O)O)ncc12 [Example 328, 2-(N-(4-(hydrazinecarbonyl)-2-(4′-(5-(hydroxymethyl)isoxazol-3-yl)-[1,1′-biphenyl]-4-yl)-1,6-naphthyridin-7-yl)sulfamoyl)acetic acid hydrochloride]
2	CS(=O)(=O)NCc1cc(-c2ccc(-c3ccc(-c4cc(C(=O)NN)c5cnccc5n4)cc3)cc2)no1 [Example 35, N-((3-(4′-(4-(hydrazinecarbonyl)-1,6-naphthyridin-2-yl)-[1,1′-biphenyl]-4-yl)isoxazol-5-yl)methyl)methanesulfonamide]
8	NNC(=O)c1cc(-c2ccc(-c3ccc(-c4cc(C(=O)N5CCCCC5C(=O)O)on4)cc3)cc2)nc2ccncc12 (racemic) [Example 115, 1-(3-(4′-(4-(hydrazinecarbonyl)-1,6-naphthyridin-2-yl)-[1,1′-biphenyl]-4-yl)isoxazole-5-carbonyl)piperidine-2-carboxylic acid]
5	NNC(=O)c1cc(-c2ccc(C#Cc3ccc(NS(=O)(=O)C(F)(F)F)cc3)cc2)nc2ccncc12 [Example 185, 1,1,1-trifluoro-N-(4-((4-(4-(hydrazinecarbonyl)-1,6-naphthyridin-2-yl)phenyl)ethynyl)phenyl)methanesulfonamide]
5	CS(=O)(=O)Nc1cc2nc(-c3ccc(-c4ccc(-c5cc(CO)on5)cc4)cc3)cc(C(=O)NN)c2cn1 [Example 327, N-(4-(hydrazinecarbonyl)-2-(4′-(5-(hydroxymethyl)isoxazol-3-yl)-[1,1′-biphenyl]-4-yl)-1,6-naphthyridin-7-yl) methanesulfonamide hydrochloride]
18	CCC(C)C(NC(=O)c1ccc(C#Cc2ccc(-c3cc(C(=O)NN)c4cnccc4n3)cc2)cc1)C(=O)O (racemic) [Example 172, 2-(4-((4-(4-(hydrazinecarbonyl)-1,6-naphthyridin-2-yl)phenyl)ethynyl)benzamido)-3-methylpentanoic acid]
4	O=C(O)CCCOc1ccc(-c2ccc(-c3cc(N4C(=O)CNC4=S)c4cnccc4n3)cc2)cc1 [Example 83, 4-((4′-(4-(5-oxo-2-thioxoimidazolidin-1-yl)-1,6-naphthyridin-2-yl)-[1,1′-biphenyl]-4-yl)oxy)butanoic acid]
6	NNC(=O)c1cc(-c2ccc(-c3ccc(OCCNS(=O)(=O)C(F)(F)F)cc3)cc2)nc2ccncc12 [Example 101]
2	CS(=O)(=O)Nc1cc2nc(-c3ccc(C#Cc4ccc(C(=O)N5CCCC[C@H]5C(=O)O)cc4Cl)cc3)cc(C(=O)NN)c2cn1 [Example 309, (S)-1-(3-chloro-(4-((4-(4-(hydrazinecarbonyl)-7-(methylsulfonamido)-1,6-naphthyridin-2-yl)phenyl)ethynyl)benzoyl)piperidine-2-carboxylic acid hydrochloride]

SMILES	IC50 [nM]
O=C(NO)[C@@H](Cc1ccc2ccccc2c1)NS(=O)(=O)c1ccc2ccccc2c1 [BB-78485]	20
NNC(=O)c1cc(-c2ccc(C#Cc3ccc(C(=O)N4CCCC[C@H]4C(=O)O)cc3Cl)cc2)nc2ccncc12 [Example 202, (S)-1-(3-chloro-4-((4-(4-(hydrazinecarbonyl)-1,6-naphthyridin-2-yl)phenyl)ethynyl)benzoyl)piperidine-2-carboxylic acid hydrochloride]	2

Each compound was assayed on Pseudomonas aeruginosa (ATCC 27853) (assay: Minimum Inhibitory Concentration (MIC), CLSI broth microdilution). Conditions: ATCC27853, 35±1° C., 18±2 h, concentration which completely inhibited growth.
Assay type: cell-based
Protocol: A. Minimum Inhibitory Concentration (MIC)
Minimum Inhibitory Concentrations (MICS) were determined for Escherichia coli (American Type Culture Collection (ATCC) 25922) and Pseudomonas aeruginosa (ATCC 27853) in accordance with the Clinical and Laboratory Standards Institute (CLSI). Serial, one-half dilutions of compounds were prepared in 96-well dilution blocks in cation-adjusted Mueller-Hinton Broth (MBH)+2% DMSO and transferred to 96-well assay plates in duplicate. Cell suspensions of E. coli and P. aeruginosa were prepared in MHB and added to each well at concentrations of approximately 1.2×10^6 and 3.3×10^6 colony-forming-units per milliliter (cfu/mL), respectively. The inoculated plates were incubated at 35±1° C. for 18±2 h. At the completion of incubation the wells of each plate were evaluated visually for the presence of growth. […] In addition to visual evaluation, optical densities were determined using a Tecan Infinite M200 microplate reader measuring absorbance at 600 nm.

SMILES	MIC [µg/mL]
NNC(=O)c1cc(-c2ccc(C#Cc3ccc(C(=O)N4CCCC[C@H]4C(=O)O)cc3Cl)cc2)nc2ccncc12 [Example 202, (S)-1-(3-chloro-4-((4-(4-(hydrazinecarbonyl)-1,6-naphthyridin-2-yl)phenyl)ethynyl)benzoyl)piperidine-2-carboxylic acid hydrochloride]	128
